For ten compounds, IC50 results are on record in patent US12187713B2, “Immunomodulators, compositions and methods thereof” (Betta Pharmaceuticals Co., Ltd, priority 2019, dated 2025).

Broadly, the pIC50 is the negative decadic logarithm of the IC50, by convention in mol/L. The low end stands for a large IC50, the high end for a small IC50.

Each structure is given as a SMILES string. pIC50: −log10 of the molar value. Bounds are passed on as bounds.

In the first test the target is PD-1/PD-L1 (Homo sapiens (Human), UniProt Q9NZQ7). Briefly: PD-1/PD-L1 Binding Assay (Alphascreen). To be noted: numeric values. Summed up: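 PD-1/PD-L1 binding detected by anti-6×His acceptor and streptavidin donor beads after 120 min in the dark at 25 °C. Beforehand, the two proteins were incubated 15 min at 25 °C with inhibitor at 0.015–300 nM (1% DMSO). IC50 comes from a log concentration–response curve.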
PD-1/PD-L1, sequence (Q9NZQ7 19-238): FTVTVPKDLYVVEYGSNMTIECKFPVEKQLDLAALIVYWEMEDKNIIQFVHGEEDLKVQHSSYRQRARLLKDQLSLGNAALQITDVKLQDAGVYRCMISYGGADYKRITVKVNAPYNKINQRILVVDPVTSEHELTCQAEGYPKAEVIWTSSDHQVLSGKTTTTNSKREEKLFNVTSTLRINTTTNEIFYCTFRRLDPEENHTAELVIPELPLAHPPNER
Background: In Alpha technology, singlet oxygen from a donor bead excites a nearby acceptor bead.
`COc1nc(OCc2cccc(-c3cccc(-c4nc5cc(CN6CCC[C@H]6C(=O)O)c(OC(F)F)cc5o4)c3C)c2C)nc(OC)c1CN1CCCC1` [Example 212, ((6-(difluoromethoxy)-2-(3′-(((4,6-dimethoxy-5-(pyrrolidin-1-ylmethyl)pyrimidin-2-yl)oxy)methyl)-2,2′-dimethyl-[1,1′-biphenyl]-3-yl)benzo[d]oxazol-5-yl)methyl)-L-proline]: the negative-log IC50 (pIC50) was 8.08. On the same count and under the same terms, for `Cc1c(-c2nc3cc(CN4CCC[C@H]4C(=O)O)c(OC(F)F)cc3o2)cccc1-c1cccc(-c2ccc(CNC[C@@H]3CCC(=O)N3)cc2)c1F` [Example 215, ((6-(difluoromethoxy)-2-(2′-fluoro-2-methyl-4″- (((((S)-5-oxopyrrolidin-2-yl)methyl)amino)methyl)-[1,1′:3′,1″- terphenyl]-3-yl)benzo[d]oxazol-5-yl)methyl)-L-proline] the value was 8.55; for `Cc1c(-c2ccc(CNCCO)cc2)cccc1-c1cccc(-c2nc3cc(CN4CCC[C@H]4C(=O)O)c(OC(F)F)cc3o2)c1C` [Example 217, ((6-(difluoromethoxy)-2-(4″-(((2-hydroxyethyl)amino)methyl)-2,2′-dimethyl-[1,1′:3′,1″-terphenyl]-3-yl)benzo[d]oxazol-5-yl)methyl)-L-proline], 9.17.

Still in this test, the particulars now being: range symbols.
The compound `CC(=O)NCCNCc1cc(Cl)c(OCc2cccc(-c3cccc(-c4nc5cc(CN6CCC[C@H]6C(=O)O)c(OC(F)F)cc5o4)c3C)c2C)cc1OCc1cccc(C#N)c1` [Example 210] had a pIC50 of 8.30 to 10.00.

In turn, `Cc1c(COc2cc(OCc3cccc(C#N)c3)c(CN3CCC[C@H]3C(=O)O)cc2Cl)cccc1-c1cccc(-c2nc3cc(CN4CCC[C@H]4C(=O)O)c(OC(F)F)cc3o2)c1C` [Example 211] gave a pIC50 of 8.30 to 10.00. On the same count and under the same terms, then `COc1nc(OCc2cccc(-c3cccc(-c4nc5cc(CN6CCC[C@H]6C(=O)O)c(OC(F)F)cc5o4)c3C)c2C)nc(OC)c1CN1CC(C)(C)C1` [Example 213, ((6-(difluoromethoxy)-2-(3′-(((5-((3,3-dimethylazetidin-1-yl)methyl)-4,6-dimethoxypyrimidin-2-yl)oxy)methyl)-2,2′-dimethyl-[1,1′-biphenyl]-3-yl)benzo[d]oxazol-5-yl)methyl)-L-proline], with 7.30 to 8.30. Same read-out and setting: then `Cc1c(Oc2ccc(CNC[C@@H]3CCC(=O)N3)cn2)cccc1-c1cccc(-c2nc3cc(CN4CCC[C@H]4C(=O)O)c(OC(F)F)cc3o2)c1C` [Example 214, ((6-(difluoromethoxy)-2-(2,2′-dimethyl-3′-((5-(((((S)-5-oxopyrrolidin-2-yl)methyl)amino)methyl)pyridin-2-yl)oxy)-[1,1′-biphenyl]-3-yl)benzo[d]oxazol-5-yl)methyl)-L-proline], with under 7.30; and `Cc1c(-c2nc3cc(CN4CCC[C@H]4C(=O)O)c(OC(F)F)cc3o2)cccc1-c1cccc(-c2ccc(CNC[C@@H]3CCC(=O)N3)c(OC(F)F)c2)c1F` [Example 216, ((6-(difluoromethoxy)-2-(3″-(difluoromethoxy)-2′-fluoro-2-methyl-4″-(((((S)-5-oxopyrrolidin-2-yl)methyl)amino)methyl)-[1,1′:3′,1″- terphenyl]-3-yl)benzo[d]oxazol-5-yl)methyl)-L-proline], with 8.30 to 10.00.

On to `Cc1cc(-c2cccc(-c3cccc(-c4nc5cc(CN6CCC[C@H]6C(=O)O)c(OC(F)F)cc5o4)c3C)c2C)ccc1CN1CCCC1` [Example 218, ((6-(difluoromethoxy)-2-(2,2′,3″-trimethyl-4″- (pyrrolidin-1-ylmethyl)-[1,1′:3′,1″-terphenyl]-3-yl)benzo[d]oxazol-5-yl)methyl)proline], for which the negative logarithm of the IC50 (pIC50) was 8.30 to 10.00. Still for that read-out and setting: then `Cc1c(-c2ccc(CN3CCCC3)c(Cl)c2)cccc1-c1cccc(-c2nc3cc(CN4CCC[C@H]4C(=O)O)c(OC(F)F)cc3o2)c1C` [Example 219, ((2-(3″-chloro-2,2′-dimethyl-4″-(pyrrolidin-1-ylmethyl)-[1,1′:3′,1″-terphenyl]-3-yl)-6-(difluoromethoxy)benzo[d]oxazol-5-yl)methyl)proline], with 8.30 to 10.00.
